Assays:
Format in all cases: cell-based
[1] = tested on: Aspergillus niger; assay: Minimum inhibitory concentration against fungi, agar incorporation test, strain K; settings: malt extract/agar
Procedure: (§1) The invention is carried out using the known agar incorporation test in the following fungi:
(§2) in a malt extract/agar (Merck). Inhibition is effected by adding sufficient of each of the various compounds to give final concentrations in the agar of 2, 5, 10, 50 and 100 mg/liter. The concentrations (mg/liters) required to inhibit the growth of the fungi (starting from traces of fungi added dropwise) are illustrated in Table 3.

[2] = tested on: Candida albicans; assay: Minimum inhibitory concentration against fungi, agar incorporation test, strain P; settings: malt extract/agar
Procedure: as §1, §2

[3] = tested on: Alternaria alternata; assay: Minimum inhibitory concentration against fungi, agar incorporation test, strain N; settings: malt extract/agar
Procedure: as §1, §2

[4] = tested on: Proteus vulgaris; assay: Minimum inhibitory concentration against bacteria, strain A; settings: 24 hours at 30° C.; tested at 100 and 300 mg/liter
Procedure: (§3) Overnight cultures, grown in Caso peptone bouillon (Merck) of the various strains of bacteria: (A) Proteus vulgaris, (B) Pseudomonas aeruginosa, (C) Enterobacter aerogenes, (D) Serratia marcencens, (E) Alcaligenes denitrificans and (F) Bacillus subtilis are each diluted in a ratio of 1/1000 in saline solution. Sufficient of the suspensions is put into Caso peptone bouillon to dilute the bacteria again in the ratio of 1/1000. Each of the compounds listed in Table 1 is then added in amounts of 100 and 300 mg/liter. After being incubated for 24 hours at 30° C. in a shaking waterbath, the turbidity of the samples is evaluated.

[5] = tested on: Cladosporium cladosporioides; assay: Minimum inhibitory concentration against fungi, agar incorporation test, strain O; settings: malt extract/agar
Procedure: as §1
(O) Cladosporium cladosporioides
as §2

[6] = tested on: Aspergillus phoenicis; assay: Minimum inhibitory concentration against fungi, agar incorporation test, strain L; settings: malt extract/agar
Procedure: as §1
(L) Aspergillus phoenicis
as §2

[7] = tested on: Chaetomium globosum; assay: Minimum inhibitory concentration against fungi, agar incorporation test, strain S; settings: malt extract/agar
Procedure: as §1, §2

[8] = tested on: Chlorella vulgaris; assay: Action against algae: Chlorella vulgaris; design: key: --: no growth on the agar, 3 ppm have destroyed the algae in 6 hours; settings: 3 mg/liter; for Growth on the agar (algae-destroying action): 6 hours exposure, 14 days incubation; for Growth in the medium (growth inhibition): 14 days
Procedure: Cultures of Chlorella vulgaris which had been grown for 14 days in algae nutrient media are diluted in the ratio 1/200 in the algae nutrient medium. Each of the compounds listed in Table 1 is then added in such an amount as to give a final concentration of 3 mg/liter. After incubating for 6 hours, 10 μl of each culture are withdrawn and added dropwise to algae/agar in order to determine the destructive action. After the cultures have incubated for 14 days under illumination (14 hours of light and 10 hours of darkness, alternately), the growth in the algae medium (determination of growth inhibition) and on the algae/agar (determination of algae-destroying action) is assessed visually.

[9] = tested on: Bacillus subtilis; assay: Minimum inhibitory concentration against bacteria, strain F; settings: 24 hours at 30° C.; tested at 100 and 300 mg/liter
Procedure: as §3

[10] = tested on: Penicillium funiculosum; assay: Minimum inhibitory concentration against fungi, agar incorporation test, strain M; settings: malt extract/agar
Procedure: as §1
(M) Penicillium funiculosum
as §2

[11] = tested on: Alcaligenes denitrificans; assay: Minimum inhibitory concentration against bacteria, strain E; settings: 24 hours at 30° C.; tested at 100 and 300 mg/liter
Procedure: as §3

[12] = tested on: Serratia marcencens; assay: Minimum inhibitory concentration against bacteria, strain D; settings: 24 hours at 30° C.; tested at 100 and 300 mg/liter
Procedure: as §3

[13] = tested on: Aureobasidium pullulans; assay: Minimum inhibitory concentration against fungi, agar incorporation test, strain R; settings: malt extract/agar
Procedure: as §1
(R) Aureobasidium pullulans
as §2

[14] = tested on: Endomyces geotrichum; assay: Minimum inhibitory concentration against fungi, agar incorporation test, strain Q; settings: malt extract/agar
Procedure: as §1, §2

[15] = tested on: Enterobacter aerogenes; assay: Minimum inhibitory concentration against bacteria, strain C; settings: 24 hours at 30° C.; tested at 100 and 300 mg/liter
Procedure: as §3

[16] = tested on: Pseudomonas aeruginosa; assay: Minimum inhibitory concentration against bacteria, strain B; settings: 24 hours at 30° C.; tested at 100 and 300 mg/liter
Procedure: as §3

| Molecule | MIC against fungi, strain K [1] | MIC against fungi, strain P [2] | MIC against fungi, strain N [3] | MIC against bacteria, strain A [4] | MIC against fungi, strain O [5] | MIC against fungi, strain L [6] | MIC against fungi, strain S [7] | Growth on the agar (algae-destroying action) [8] | Growth in the medium (growth inhibition) [8] | MIC against bacteria, strain F [9] | MIC against fungi, strain M [10] | MIC against bacteria, strain E [11] | MIC against bacteria, strain D [12] | MIC against fungi, strain R [13] | MIC against fungi, strain Q [14] | MIC against bacteria, strain C [15] | MIC against bacteria, strain B [16] |
| --- | --- | --- | --- | --- | --- | --- | --- | --- | --- | --- | --- | --- | --- | --- | --- | --- | --- |
| (CH3)2 N(OH)C16 H37 / Tributyldichloro [Example 15] | 2 µg/mL | 5 µg/mL | 2 µg/mL | 100 µg/mL | 2 µg/mL | 2 µg/mL | 2 µg/mL | -- | -- | 100 µg/mL | 5 µg/mL | 300 µg/mL | > 300 µg/mL | 2 µg/mL | 10 µg/mL | > 300 µg/mL | 100 µg/mL |
| CCCCCCCCCCCCC(=O)NCCC[N+](C)(C)CC(N)=O.CCC[CH2][Sn-]([Cl])([Cl])([CH2]CCC)[CH2]CCC [Example 30, (C12 H25 CO)NH(CH2) 3 N(CH3)2 (CH2 CONH2) / Tributyldichloro] | ≤ 5 µg/mL | ≤ 5 µg/mL | ≤ 5 µg/mL | 100 µg/mL | ≤ 5 µg/mL | ≤ 5 µg/mL | ≤ 5 µg/mL | -- | -- | 100 µg/mL | 10 µg/mL | 100 µg/mL | 100 µg/mL | ≤ 5 µg/mL | 10 µg/mL | 100 µg/mL | 100 µg/mL |

Source: patent publication US4578489A (priority 1982, dated 1986)
